# Reference: US20070010399A1, “Crop plant-compatible herbicidal compositions comprising herbicides and safeners” (priority 2005, published 2007)
# Read-outs that look alike come from different tables or passages of the source.
# Experiments:
# Type in all cases: in vivo
# [1] = tested on: corn; assay: Herbicidal pre-emergence action: damage to corn
# Text: Seeds of monocotyledonous and dicotyledonous weed and crop plants are placed into sandy loam in cardboard pots and covered with soil. The herbicidal compositions according to the invention, formulated in the form of wettable powders or emulsion concentrates, are then applied as an aqueous suspension or emulsion with a water application rate of 600 to 800 l/ha (converted) in different dosages to the surface of the covering soil. After the treatment, the pots are placed in a greenhouse and kept under good growth conditions for the weeds. Optical scoring of the damage to the plants or the emergence damage is carried out after emergence of the test plants after a test period of 3 to 4 weeks, by comparison with untreated controls.
# (§1) The herbicidal activity or damage is in each case stated in percent: 100% activity=the plants have died, 0% activity=like untreated control plants. The abbreviation “a.i.” means active ingredient.
# [2] = tested on: corn; conditions: seed treatment, post-emergence; reduction of corn damage by seed dressing with A3 0.5 g/kg; printed in the line of the herbicide alone
# [3] = tested on: corn
# Method: Seeds of monocotyledonous and dicotyledonous weed and crop plants are placed into sandy loam in wood fiber pots or in plastic pots, covered with soil and cultivated in a greenhouse, including during the vegetation period outdoors outside of the greenhouse, under good growth conditions. 2-3 weeks after sowing, the test plants are treated at the one- to three-leaf stage. The herbicidal compositions according to the invention, formulated as wettable powders (WP) or liquid (EC) are, in various dosages with a water application rate of 300 l/ha (converted), with added wetting agent (0.2 to 0.3%), sprayed onto the plants and the surface of the soil. 3 to 4 weeks after the treatment of the test plants, the effect of the preparations is rated visually in comparison to untreated controls.
# The abbreviation “a.i.” means active ingredient.
# [4] = tested on: corn; assay: Treatment of corn seed with safener, herbicide pre-emergence; conditions: reduction of corn damage by seed dressing with A3 0.5 g/kg, printed in the line of the herbicide alone
# Method: Corn seed is treated (dressed) with various amounts of a safener and then placed-in sandy loam and covered with soil. The herbicides, formulated as emulsifiable concentrates or dust, are applied using a water application rate of 300 to 800 l/ha (converted) at various dosages to the surface of the covering soil. The optical scoring of the damage to the useful plants is carried out 3 to 5 weeks after the treatment.
# as §1
# In Tables 3 and 4, the dosage of the herbicide (component B) is stated in gram per hectare and that of the safener (component A) is stated in gram per kilogram of seed.
# [5] = pre-emergence, reduction of corn damage by adding safener A3 to the herbicide, printed in the line of the herbicide alone, spans both lines
# [6] = post-emergence, reduction of corn damage by adding safener A3 to the herbicide, printed in the line of the herbicide alone, spans both lines
smiles,measurement,setting,value
"COc1nn(C(=O)NS(=O)(=O)c2ccccc2OC(F)(F)F)c(=O)n1C [Component B1.1, flucarbazone]",Damage reduced by,[1]; [5],78%
same,Damage reduced by,[2],80%
same,Damage reduced by,[3]; [6],70%
"COc1cc(OC)nc(NC(=O)NS(=O)(=O)c2cc(NC=O)ccc2C(=O)N(C)C)n1 [Component B1.2, foramsulfuron]",Damage reduced by,[3]; in vivo,100%
"COc1nc(C)nc(NC(=O)NS(=O)(=O)c2cc(I)ccc2C(=O)O)n1 [Component B1.3, iodosulfuron]",Damage reduced by,[1]; in vivo,69%
"COc1cc(OC)n2nc(S(=O)(=O)Nc3c(Cl)ccc(C)c3Cl)nc2n1 [Component B1.4, metosulam]",Damage reduced by,[1]; in vivo,33%
"COc1nc(C)nc(=NC(=O)NS(=O)(=O)c2ccccc2C(=O)O)[nH]1 [Component B1.5, metsulfuron]",Damage reduced by,[2],80%
same,Damage reduced by,[3]; [6],80%
"COc1cc(OC)nc(NC(=O)NS(=O)(=O)c2ncccc2C(=O)N(C)C)n1 [Component B1.6, nicosulfuron]",Damage reduced by,[1]; [5],67%
"COc1nc(C)nc(NC(=O)NS(=O)(=O)c2ccccc2CCC(F)(F)F)n1 [Component B1.8, prosulfuron]",Damage reduced by,[1]; in vivo,67%
"COc1nc(C)nc(NC(=O)NS(=O)(=O)c2ccsc2C(=O)O)n1 [Component B1.9, thifensulfuron]",Damage reduced by,[1]; [5],100%
"COc1nc(C)nc(N(C)C(=O)NS(=O)(=O)c2ccccc2C(=O)O)n1 [Component B1.10, tribenuron]",Damage reduced by,[4],60%
same,Damage reduced by,[1]; [5],50%
"CCOc1nc(F)cc2nc(S(=O)(=O)Nc3c(Cl)cccc3C(=O)OC)nn12 [Component B1.11, cloransulam-methyl]",Damage reduced by,[1]; in vivo,43%
same,Damage reduced by,[3]; in vivo,50%
"COc1cc(Cl)nc(NC(=O)NS(=O)(=O)c2ccccc2C(=O)O)n1 [Component B1.12, chlorimuron]",Damage reduced by,[2],71%
same,Damage reduced by,[3]; [6],86%
"CCOc1ccccc1OS(=O)(=O)NC(=O)Nc1nc(OC)cc(OC)n1 [Component B1.13, ethoxysulfuron]",Damage reduced by,[1]; in vivo,50%
same,Damage reduced by,[3]; in vivo,50%
"Cc1ccn2nc(S(=O)(=O)Nc3c(F)cccc3F)nc2n1 [Component B1.16, flumetsulam]",Damage reduced by,[1]; in vivo,57%
same,Damage reduced by,[3]; in vivo,43%
"COc1cc(OC)nc(NC(=O)NS(=O)(=O)c2c(C(=O)O)c(Cl)nn2C)n1 [Component B1.17, halosulfuron]",Damage reduced by,[3]; in vivo,100%
"COCc1cnc(C2=NC(C)(C(C)C)C(=O)N2)c(C(=O)O)c1 (stereo not drawn) [Component B1.18, imazamox]",Damage reduced by,[3]; [6],40%
"Cc1cnc(C2=NC(=O)C(C)(C(C)C)N2)c(C(=O)O)c1 (stereo not drawn) [Component B1.19, imazapic]",Damage reduced by,[3]; in vivo,33%
"CCc1cnc(C2=NC(C)(C(C)C)C(=O)N2)c(C(=O)O)c1 (stereo not drawn) [Component B1.21, imazethapyr]",Damage reduced by,[3]; in vivo,71%
"COc1cc(OC)nc(NC(=O)NS(=O)(=O)c2cc(CNS(C)(=O)=O)ccc2C(=O)O)n1 [Component B1.22, mesosulfuron]",Damage reduced by,[1]; [5],56%
"CCCOc1nn(C(=O)[N-]S(=O)(=O)c2ccccc2C(=O)OC)c(=O)n1C.[Na+] [Component B1.23, propoxycarbazone]",Damage reduced by,[2],68%
"COc1cc(OC)nc(NC(=O)NS(=O)(=O)N(C)S(C)(=O)=O)n1 [Component B1.25, amidosulfuron]",Damage reduced by,[3]; in vivo,80%
"COc1nc(C)nc(NC(=O)NS(=O)(=O)c2ccccc2Cl)n1 [Component B1.26, chlorsulfuron]",Damage reduced by,[3]; in vivo,86%
"COc1nc(C)nc(NC(=O)NS(=O)(=O)c2ccccc2OCCCl)n1 [Component B1.28, triasulfuron]",Damage reduced by,[1]; in vivo,71%
"COc1cc(OC)nc(NC(=O)NS(=O)(=O)c2nc(C(F)(F)F)ccc2C(=O)O)n1 [Component B1.31, flupyrsulfuron]",Damage reduced by,[2],75%
same,Damage reduced by,[3]; [6],75%
"COc1cc(OC)nc(NC(=O)NS(=O)(=O)c2c(C(=O)O)cnn2C)n1 [Component B1.32, pyrazosulfuron]",Damage reduced by,[1]; [5],38%
"CCS(=O)(=O)c1cccnc1S(=O)(=O)NC(=O)Nc1nc(OC)cc(OC)n1 [Component B1.36, rimsulfuron]",Damage reduced by,[3]; in vivo,100%
"CS(=O)(=O)c1ccc(C(=O)C2C(=O)CCCC2=O)c(Cl)c1 [Component B2.1, sulcotrione]",Damage reduced by,[3]; [6],77%
"CS(=O)(=O)c1ccc(C(=O)C2C(=O)CCCC2=O)c([N+](=O)[O-])c1 [Component B2.3, mesotrione]",Damage reduced by,[3]; [6],83%
"Cc1c(C(=O)c2cnn(C)c2O)ccc(S(C)(=O)=O)c1C1=NOCC1 [Component B2.4, topramezone]",Damage reduced by,[3]; [6],64%
"CSc1nnc(C(C)(C)C)c(=O)n1N [Component B3.1, metribuzin]",Damage reduced by,[1]; [5],50%
"CCCN(CCC)C(=O)SCC [Component B4.1, EPTC]",Damage reduced by,[3]; [6],62%
"CCc1cccc(C)c1N(C(=O)CCl)[C@@H](C)COC [Component B5.2, S-metolachlor]",Damage reduced by,[1]; [5],78%
"COc1c(Cl)ccc(Cl)c1C(=O)O [Component B7.1, dicamba]",Damage reduced by,[3]; in vivo,100%
"CCC(CC)Nc1c([N+](=O)[O-])cc(C)c(C)c1[N+](=O)[O-] [Component B10.1, pendimethalin]",Damage reduced by,[1]; [5],54%
